# Results reported in BigSolDB 2.1.
structure (smiles),measurement,setting,value
CCC(C)n1ncn(-c2ccc(N3CCN(c4ccc(OC[C@H]5CO[C@](Cn6cncn6)(c6ccc(Cl)cc6Cl)O5)cc4)CC3)cc2)c1=O (mixture of isomers),solubility (mole fraction),"in chloroform, 288.15 K",0.0459
same,solubility (mole fraction),"in chloroform, 293.15 K",0.048
same,solubility (mole fraction),"in chloroform, 298.15 K",0.0503
same,solubility (mole fraction),"in chloroform, 303.15 K",0.0525
same,solubility (mole fraction),"in chloroform, 308.15 K",0.0548
same,solubility (mole fraction),"in dichloromethane, 288.15 K",0.0287
same,solubility (mole fraction),"in dichloromethane, 293.15 K",0.0306
same,solubility (mole fraction),"in dichloromethane, 298.15 K",0.0326
same,solubility (mole fraction),"in dichloromethane, 303.15 K",0.0347
same,solubility (mole fraction),"in dichloromethane, 308.15 K",0.0369
same,solubility (mole fraction),"in ethanol, 288.15 K",1.07e-05
same,solubility (mole fraction),"in ethanol, 293.15 K",1.43e-05
same,solubility (mole fraction),"in ethanol, 298.15 K",1.89e-05
same,solubility (mole fraction),"in ethanol, 303.15 K",2.44e-05
same,solubility (mole fraction),"in ethanol, 308.15 K",3.18e-05
same,solubility (mole fraction),"in methanol, 288.15 K",2.35e-05
same,solubility (mole fraction),"in methanol, 293.15 K",2.97e-05
same,solubility (mole fraction),"in methanol, 298.15 K",3.78e-05
same,solubility (mole fraction),"in methanol, 303.15 K",4.71e-05
same,solubility (mole fraction),"in methanol, 308.15 K",5.88e-05
same,solubility (mole fraction),"in n-butanol, 288.15 K",1.43e-05
same,solubility (mole fraction),"in n-butanol, 293.15 K",1.82e-05
same,solubility (mole fraction),"in n-butanol, 298.15 K",2.28e-05
same,solubility (mole fraction),"in n-butanol, 303.15 K",2.87e-05
same,solubility (mole fraction),"in n-butanol, 308.15 K",3.52e-05
same,solubility (mole fraction),"in n-propanol, 288.15 K",1.24e-05
same,solubility (mole fraction),"in n-propanol, 293.15 K",1.61e-05
same,solubility (mole fraction),"in n-propanol, 298.15 K",2.09e-05
same,solubility (mole fraction),"in n-propanol, 303.15 K",2.68e-05
same,solubility (mole fraction),"in n-propanol, 308.15 K",3.36e-05
